Eight compounds from patent US20110045101A1, “FUNGICIDAL SUBSTITUTED AZOLES” (E.I. Du Pont De Nemours and Company, priority 2009, published 2011) can be followed below.

Marks after values point to notes of the source that are not given here.

Common to all, as to format: in vivo
What all share (conditions): 100 = 100% disease control

In test [1] the test system is Puccinia recondita f. sp. tritici. Nature of the test: Test H: wheat leaf rust, test suspension sprayed after inoculation of wheat seedlings, visual disease rating. An outline of the steps: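 Wheat seedlings inoculated with P. recondita spores, held 24 h saturated at 20 °C, then 2 days in growth chamber at 20 °C; compound suspension (acetone/water with Trem 014) sprayed to run-off afterwards. Rated visually; 200 ppm (≈500 g/ha) unless marked *, which denotes 40 ppm.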

Test [2] deals with Septoria nodorum. Nature of the test: Test F: wheat glume blotch on wheat seedlings, sprayed the day before inoculation, visual disease rating. In short, it runs like this:
(§1)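 Test rate was 200 ppm, sprayed to run-off and equal to 500 g/ha, or 40 ppm where marked. The compound was first taken up in acetone at 3% of final volume and suspended in acetone/purified water (50/50) containing 250 ppm Trem® 014.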

Test [3] deals with Septoria tritici. Nature of the test: Test G: wheat leaf blotch on wheat seedlings, sprayed the day before inoculation, visual disease rating. An outline of the steps:
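Seedlings receive a protective spray of test suspension in acetone/water carrying 250 ppm surfactant, mostly at 200 ppm and at 40 ppm where marked. They are inoculated the next day, kept saturated at 24° C for 48 h, then held at 20° C for 19 days before visual scoring.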

The subject of test [4] is Botrytis cinerea. Nature of the test: Test C: tomato Botrytis on tomato seedlings, sprayed the day before inoculation, visual disease rating. An outline of the steps:
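Each compound is first taken up in acetone at 3% of the final volume and then brought to the desired ppm in a 50:50 acetone–water mix with 250 ppm surfactant (polyhydric alcohol esters). Tomato seedlings receive the suspension to run-off, normally at 200 ppm, occasionally 40 ppm.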

The subject of test [5] is Erysiphe graminis f. sp. tritici. The test is described as follows: Test J: wheat powdery mildew on wheat seedlings, sprayed the day before inoculation, visual disease rating. In short, it runs like this: as §1
The test system of test [6] is Alternaria solani. The test is described as follows: Test D: tomato early blight, sprayed the day before inoculation, visual disease rating. In short, it runs like this:
as §1

For test [7], the system named is Puccinia recondita f. sp. tritici. Nature of the test: Test I: wheat leaf rust on wheat seedlings, sprayed the day before inoculation, visual disease rating. In short, it runs like this:
as §1

[8] abbreviates: 200 ppm, 0 = no control relative to controls.

For the compound `COc1cc(Cl)c(-c2c(Cl)nc(Br)n2-c2ccc(Cl)c(F)c2)c(Cl)c1` [compound 574], in test [1] (setting [8]), the “Test H disease control rating” value was found to be 0%. Also, the “Test F disease control rating” value in test [2] (setting [8]) is 60%. In addition, the “Test G disease control rating” value in test [3] (setting [8]) is 100%. Besides, the “Test C disease control rating” value in test [4] (setting [8]) stood at 100%. Further, the “Test J disease control rating” value in test [5] (setting [8]) worked out at 97%. Moreover, in test [6] (setting [8]), the “Test D disease control rating” value is on record as 0%. Also, the “Test I disease control rating” value in test [7] (setting [8]) was 98%.
Consider `Cc1nc(Cl)n(-c2ccc(Cl)c(F)c2)c1-c1cncc(Br)c1` [compound 356], for which the “Test H disease control rating” value in test [1] (setting [8]) worked out at 17%. Further, the “Test F disease control rating” value in test [2] (setting [8]) came out at 0%. In test [3] (setting [8]), the “Test G disease control rating” value came out at 72%. Also, the “Test C disease control rating” value in test [4] (setting [8]) is 98%. The “Test J disease control rating” value in test [5] (setting [8]) stood at 0%. Besides, in test [6] (setting [8]), the “Test D disease control rating” value worked out at 57%. Further, the “Test I disease control rating” value in test [7] (setting [8]) is recorded as 0%.
Take `COc1cc(F)c(-c2c(Cl)nc(Cl)n2-c2ccc(C)c(C#N)c2)c(F)c1` [compound 572]: in test [1] (40 ppm (marked *)), the “Test H disease control rating” value is given as 0* %. In test [2] (40 ppm (marked *)), the “Test F disease control rating” value is given as 92* %. Moreover, the “Test G disease control rating” value in test [3] (40 ppm (marked *)) is on record as 95* %. For the same compound, the “Test C disease control rating” value in test [4] (40 ppm (marked *)) is reported as 100* %. The “Test J disease control rating” value in test [5] (40 ppm (marked *)) was 71* %. Moreover, the “Test D disease control rating” value in test [6] (40 ppm (marked *)) is 99* %. Besides, in test [7] (40 ppm (marked *)), the “Test I disease control rating” value is 99* %.
For orientation: pest or weed control means how far the test organism was held down. Read a low pest or weed control as weak suppression. With `COc1cc(F)c(-n2c(Cl)nc(C)c2-c2ccc(Cl)nc2)c(F)c1` [Compound 696, 2-chloro-5-[2-chloro-1-(2,6-difluoro-4-methoxyphenyl)-4-methyl-1H-imidazol-5-yl]pyridine], the pest or weed control at 40 ppm in test [1] (Puccinia recondita, 96 h, 40 ppm (marked *)) was 99%; in test [2] (Parastagonospora nodorum, 264 h, 40 ppm (marked *)), 100%; in test [3] (Zymoseptoria tritici, 504 h, 40 ppm (marked *)), 99%; in test [4] (Botrytis cinerea, 120 h, 40 ppm (marked *)) it was 100%; in test [5] (Blumeria graminis, 168 h, 40 ppm (marked *)) it was 100%; in test [6] (Alternaria solani, 168 h, 40 ppm (marked *)), 100%. Also, the pest or weed control at 40 ppm in test [7] (Puccinia recondita, 168 h, 40 ppm (marked *)) was 99%.
With `COc1ccc(F)c(-c2c(Cl)nc(C)n2-c2ccc(Br)cc2)c1F` [compound 582], the “Test H disease control rating” value in test [1] (setting [8]) is reported as 15%. Moreover, the “Test F disease control rating” value in test [2] (setting [8]) is listed as 99%. Moreover, the “Test G disease control rating” value in test [3] (setting [8]) worked out at 97%. In addition, the “Test C disease control rating” value in test [4] (setting [8]) is reported as 100%. Besides, the “Test J disease control rating” value in test [5] (setting [8]) was determined as 100%. For the same compound, the “Test D disease control rating” value in test [6] (setting [8]) stood at 100%. In addition, the “Test I disease control rating” value in test [7] (setting [8]) turned out to be 99%.
With `COc1cc(F)c(-c2c(Cl)ncn2-c2ccc(OC(F)(F)F)cc2)c(F)c1` [compound 559], in test [1] (setting [8]), the “Test H disease control rating” value was determined as 29%. Also, in test [2] (setting [8]), the “Test F disease control rating” value is 0%. For the same compound, in test [3] (setting [8]), the “Test G disease control rating” value is reported as 95%. Moreover, the “Test C disease control rating” value in test [4] (setting [8]) was found to be 94%. Further, the “Test J disease control rating” value in test [5] (setting [8]) was 98%. In test [6] (setting [8]), the “Test D disease control rating” value is given as 41%. Moreover, in test [7] (setting [8]), the “Test I disease control rating” value is given as 88%.
Regarding `Cc1ccc(-n2cnc(Br)c2-c2c(F)ccc(F)c2Cl)cc1` [compound 410], the “Test H disease control rating” value in test [1] (setting [8]) is 0%. Besides, the “Test F disease control rating” value in test [2] (setting [8]) is given as 0%. Moreover, in test [3] (setting [8]), the “Test G disease control rating” value was determined as 100%. Moreover, the “Test C disease control rating” value in test [4] (setting [8]) amounted to 98%. Besides, the “Test J disease control rating” value in test [5] (setting [8]) stood at 100%. In test [6] (setting [8]), the “Test D disease control rating” value worked out at 99%. In addition, the “Test I disease control rating” value in test [7] (setting [8]) came to 99%.
For `CN(C)c1ccc(-n2c(Br)nc(N(C)C)c2-c2c(F)cccc2F)cc1Br` [compound 689], the “Test H disease control rating” value in test [1] (setting [8]) amounted to 0%. For the same compound, in test [2] (setting [8]), the “Test F disease control rating” value is on record as 0%. In test [3] (setting [8]), the “Test G disease control rating” value is 0%. In test [4] (setting [8]), the “Test C disease control rating” value was found to be 0%. For the same compound, the “Test J disease control rating” value in test [5] (setting [8]) came to 0%. For the same compound, the “Test D disease control rating” value in test [6] (setting [8]) amounted to 0%. Moreover, in test [7] (setting [8]), the “Test I disease control rating” value is 0%.
